pEC50: −log10 of the molar value. Structures can show the parent of a compound that is named as a salt.
What follows are molecules tested on Dissociated VM cells (assay: Neuroprotection Assay (NMDA-induced neuroexcitotoxic injury, high affinity 3H-dopamine uptake)). Conditions: embryonic day 15 rat ventral mesencephalic cultures, NMDA (100-400 µM) for 20 hours.
Assay type: cell-based, Sprague-Dawley rat
Text: The neuroprotective activity of the compounds of this invention may be assayed using rat embryo ventral mesencephalic cells in culture which are subsequently exposed to the glutamate receptor agonist NMDA. This assay is described in detail in the example section.
The ventral mesencephalic region was dissected out of embryonic day 15 Sprague-Dawley rat embryos (Harlan), dissociated into single cell suspension by a combination of trypsinization and trituration (Costantini et al., Neurobiol Dis., pp. 97-106 (1998). Dissociated VM cells were plated into poly-L-ornithine-coated 96-well plates at a density of 85,000 cells/well in 100 uL of DMEM supplemented with 18% heat-inactivated horse serum, 0.24% glucose, 2 mM glutamine and 50 u/ml pernicillin/streptomycin and incubated in a 5% CO2 incubator. After one day in culture (DIV1), the medium was replaced with 100 µL of a defined medium (DMEM supplemented with 1x N2 cocktail (Gibco-BRL), 0.12% glucose, 2 mM glutamine, and 50 units/ml penicillin/streptomycin) containing DMSO or various concentrations of the compounds of this invention. On DIV5, neuroexcitotoxic injury was induced by the addition of various concentrations of the glutamate receptor agonist NMDA (100-400 µM). Cultures were incubated with the neurotoxin for 20 hours and the effects of neurophilin compounds were assessed using high affinity ^3H-dopamine uptake according to a procedure published by Park and Mytilineou [Brain Res., 599, pp. 83-97 (1992)].

With CCN1CCCC[C@H]1C(=O)N1CCN(Cc2ccccn2)CC1 [Compound 38, ((2S)-1-Ethylpiperidin-2-yl)-(4-pyridin-2-ylmethylpiperazin-1-yl)-methanone trihydrochloride] as the molecule, how does the pEC50 read?
Its pEC50 is under 6.30.

How did the pEC50 turn out when O=C(C1CCN(C/C=C/c2ccccc2)CC1)N1CCC(Cc2ccc(F)cc2)CC1 [Compound 255] was run?
The pEC50 was over 7.00.

CCN1CCCC[C@H]1C(=O)N1CCN(C(c2ccc(F)cc2)c2ccc(F)cc2)CC1 [Compound 25, 1-{4-[1,1-Bis-(4-fluorophenyl)methyl]-piperazin-1-yl}-1-((S)-1-ethylpiperidin-2-yl)methanone] was tested. Which pEC50 did it give?
The pEC50 was 6.30 to 7.00.

With CCN1CCC[C@H]1C(=O)N1CCC(Cc2ccccc2)CC1 [Compound 53, (4-Benzylpiperidin-1-yl)-((2S)-1-ethylpyrrolidin-2-yl)-methanone hydrochloride] as the molecule, how does the pEC50 read?
Its pEC50 is 6.30 to 7.00.

CCN1CCCC[C@H]1C(=O)N1CCN(Cc2ccc(F)cc2)CC1 [Compound 76, ((2S)-1-Ethylpiperidin-2-yl)-[4-(4-fluorobenzyl)-piperazin-1-yl] methanone] was tested. Which pEC50 did it give?
Its pEC50 is 6.30 to 7.00.

O=C([C@@H]1CCCCN1Cc1ccc(F)cc1)N1CCN(C(c2ccc(F)cc2)c2ccc(F)cc2)CC1 [Compound 62, {4-[Bis-(4-fluorophenyl)methyl]-pipezazin-1-yl}-[(2S)-1-(4-fluorobenzyl)-piperidin-2-yl]-methanone] was tested. Which pEC50 did it give?
Its pEC50 is 6.30 to 7.00.

How did the pEC50 turn out when CCN1CCCC[C@H]1C(=O)N1CCN(C(=O)c2ccccc2)CC1 [Compound 78, [4-((2S)-1-Ethylpiperidine-2-carbonyl)-piperazin-1-yl]-phenyl methanone] was run?
Its pEC50 is under 6.30.

With CN1CCC(C(=O)N2CCN(C(c3ccc(F)cc3)c3ccc(F)cc3)CC2)CC1 [Compound 218] as the molecule, how does the pEC50 read?
The pEC50 was 6.30 to 7.00.

With CCN1CCCC[C@H]1C(=O)N1CCN(Cc2ccc(OC)cc2)CC1 [Compound 75, ((2S)-1-Ethylpiperidin-2-yl)-[4-(4-methoxybenzyl)-piperazin-1-yl]-methanone] as the molecule, how does the pEC50 read?
The pEC50 was under 6.30.

With CC(C)=CCN1CCC(C(=O)N2CCN(c3ccc(F)cc3)CC2)CC1 [Compound 260] as the molecule, how does the pEC50 read?
Its pEC50 is over 7.00.

O=C(C1CC2CCN1CC2)N1CCC(Cc2ccc(F)cc2)CC1 (centres unmarked) [Compound 88, (1-Aza-bicyclo[2.2.2]oct-2-yl)-[4-(4-fluoro-benzyl)-piperidin-1-yl] methanone hydrochloride] was tested. Which pEC50 did it give?
The pEC50 was 6.30 to 7.00.

CN1CCCC(C(=O)N2CCC(Cc3ccc(F)cc3)CC2)C1 (centres unmarked) [Compound 90, [4-(4-Fluorobenzyl)piperidin-1-yl]-(1-methylpiperidin-3-yl) methanone hydrochloride] was tested. Which pEC50 did it give?
Its pEC50 is over 7.00.

CCN1CCCC[C@H]1C(=O)N1CCN(CCc2ccccc2)CC1 [Compound 74, ((2S)-1-Ethylpiperidin-2-yl)-(4-phenethylpiperazin-1-yl)-methanone dihydrochloride] was tested. Which pEC50 did it give?
The pEC50 was under 6.30.

How did the pEC50 turn out when CCN1CCCC[C@H]1C(=O)N1CCC(=Cc2ccc(F)cc2)CC1 [Compound 84, ((2S)-1-Ethylpiperidin-2-yl)-[4-(4-fluorobenzylidene)piperidin-1-yl]-methanone hydrochloride] was run?
The pEC50 was over 7.00.

How did the pEC50 turn out when CCN1CCCC[C@H]1C(=O)N1CCN(S(=O)(=O)c2ccccc2)CC1 [Compound 80, (4-Benzenesulfonylpiperazin-1-yl)-((2S)-1-ethylpiperidin-2-yl)-methanone hydrochloride] was run?
Its pEC50 is under 6.30.

CC(C)=CCN1CCCC[C@H]1C(=O)N1CCN(C(c2ccc(F)cc2)c2ccc(F)cc2)CC1 [Compound 65, {4-[Bis-(4-fluorophenyl)methyl]-piperazin-1-yl}-[(2S)-1-(3-methyl-but-2-enyl)-piperidin-2-yl]-methanone] was tested. Which pEC50 did it give?
Its pEC50 is over 7.00.

How did the pEC50 turn out when CCN1CCCC[C@H]1C(=O)N1CCC(Cc2ccccc2)C1 (stereo partly drawn) [Compound 35, (3-Benzylpyrrolidin-1-yl)-((2S)-1-ethylpiperidin-2-yl)-methanone] was run?
Its pEC50 is 6.30 to 7.00.

O=C([C@@H]1CCCN1Cc1ccccc1)N1CCN(Cc2ccc(F)cc2)CC1 [Compound 87, ((2S)-1-Benzyl-pyrrolidin-2-yl)-[4-(4-fluoro-benzyl)-piperazin-1-yl] methanone] was tested. Which pEC50 did it give?
The pEC50 was under 6.30.

O=C([C@@H]1CCCN1CCc1ccccc1)N1CCC(Cc2ccccc2)CC1 [Compound 57, (4-Benzylpiperidin-1-yl)-((2S)-1-phenethylpyrrolidin-2-yl)-methanone] was tested. Which pEC50 did it give?
The pEC50 was 6.30 to 7.00.

How did the pEC50 turn out when CCN1CCCC[C@H]1C(=O)N1CCN(C(c2ccccc2)c2ccc(Cl)cc2)CC1 (stereo partly drawn) [Compound 41, {4-[(4-Chlorophenyl)phenylmethyl]-piperazin-1-yl}-((2S)-1-ethylpiperidin-2-yl)-methanone dihydrochloride] was run?
Its pEC50 is over 7.00.

How did the pEC50 turn out when CCN1CCCC[C@H]1C(=O)N1CCC(C(=O)c2ccc(F)cc2)CC1 [Compound 45, ((2S)-1-Ethylpiperidin-2-yl)-[4-(4-fluorobenzoyl)-piperidin-1-yl]-methanone] was run?
Its pEC50 is 6.30 to 7.00.

O=C([C@@H]1CCCN1Cc1ccccc1)N1CCC(Cc2ccccc2)CC1 [Compound 52, (4-Benzylpiperidin-1-yl)-((2S)-1-benzylpyrrolidin-2-yl)-methanone hydrochloride] was tested. Which pEC50 did it give?
The pEC50 was over 7.00.

How did the pEC50 turn out when CC(C)CN1CCCC[C@H]1C(=O)N1CCN(C(c2ccc(F)cc2)c2ccc(F)cc2)CC1 [Compound 66, [4-[Bis-(4-fluorophenyl)methyl]-piperazin-1-yl]-((2S)-1-(2-methylpropyl)-piperidin-2-yl)-methanone] was run?
The pEC50 was under 6.30.

With Fc1ccc(CC2CCN(C[C@@H]3CCCN3Cc3ccccc3)CC2)cc1 [Compound 103, 1-((2S)-1-Benzylpyrrolidin-2-ylmethyl)-4-(4-fluorobenzyl)piperidine dihydrochloride] as the molecule, how does the pEC50 read?
The pEC50 was over 7.00.

With O=C([C@@H]1CCCCN1Cc1ccccc1)N1CCN(C(c2ccccc2)c2ccccc2)CC1 [Compound 20, 1-((S)-1-Benzyl-piperidin-2-yl)-1-[4-(1,1-diphenyl-methyl)-piperazin-1-yl]-methanone] as the molecule, how does the pEC50 read?
The pEC50 was over 7.00.

O=C([C@@H]1CCCN1Cc1ccccc1)N1CCN(c2ccc(F)cc2)CC1 [Compound 86, ((2S)-1-Benzylpyrrolidin-2-yl)-[4-(4-fluorophenyl)piperazin-1-yl] methanone hydrochloride] was tested. Which pEC50 did it give?
Its pEC50 is over 7.00.

CN1CCC(C(=O)N2CCC(Cc3ccccc3)CC2)CC1 [Compound 202] was tested. Which pEC50 did it give?
Its pEC50 is 6.30 to 7.00.

How did the pEC50 turn out when CCN1CCCC[C@H]1C(=O)N1CCC[C@H]1C(c1ccccc1)c1ccccc1 [Compound 27, 1-[(S)-2-(1,1-Diphenylmethyl)-pyrrolidin-1-yl]-1-((S)-1-ethyl-piperidin-2-yl)-methanone] was run?
Its pEC50 is under 6.30.

With CCN1CCCC[C@H]1C(=O)N1CCN(C(c2ccccc2)c2ccccc2)CC1 [Compound 1, 1-[4-(1,1-Diphenylmethyl)piperazin-1-yl]-1-((S)-1-ethylpiperidin-2-yl)methanone] as the molecule, how does the pEC50 read?
Its pEC50 is over 7.00.

With CO[C@@H]1C[C@@H](C(=O)N2CCC(Cc3ccccc3)CC2)N(Cc2ccccc2)C1 [Compound 153, ((2S,4R)-1-Benzyl-4-methoxypyrrolidin-2-yl)-(4-benzylpiperdin-1-yl)-methanone] as the molecule, how does the pEC50 read?
Its pEC50 is under 6.30.

With CN1CCC=C(C(=O)N2CCC(Cc3ccc(F)cc3)CC2)C1 [Compound 89, [4-(4-Fluorobenzyl)piperidin-1-yl]-(1-methyl-1,2,5,6-tetrahydropyridin-3-yl) methanone hydrochloride] as the molecule, how does the pEC50 read?
The pEC50 was 6.30 to 7.00.

CCN1CCCC[C@H]1C(=O)N1CCN(Cc2ccc3c(c2)OCO3)CC1 [Compound 71, (4-Benzo[1,3]dioxol-5-ylmethylpiperazin-1-yl)-((2S)-1-ethylpiperidin-2-yl)-methanone dihydrochloride] was tested. Which pEC50 did it give?
The pEC50 was under 6.30.

CCN1CCCC[C@H]1CN1CCC(Cc2ccccc2)CC1 [Compound 101, 4-Benzyl-1-((2S)-1-ethylpiperidin-2-ylmethyl)-piperidine] was tested. Which pEC50 did it give?
The pEC50 was over 7.00.

CN1CCCC(C(=O)N2CCN(C(c3ccc(F)cc3)c3ccc(F)cc3)CC2)C1 (centres unmarked) [Compound 220] was tested. Which pEC50 did it give?
Its pEC50 is under 6.30.

With O=C([C@@H]1CCCN1Cc1ccccc1)N1CCC(Oc2ccc(F)cc2)CC1 [Compound 48, ((2S)-1-Benzylpyrrolidin-2-yl)-[4-(4-fluorophenoxy)-piperidin-1-yl] -methanone hydrochloride] as the molecule, how does the pEC50 read?
Its pEC50 is over 7.00.

CCN1CCCC[C@H]1C(=O)N1CCC(C(O)c2ccc(F)cc2)CC1 (stereo partly drawn) [Compound 46, ((2S)-1-Ethylpiperidin-2-yl)-{4-[(4-fluorophenyl)hydroxymethyl]-piperidin-1-yl}-methanone] was tested. Which pEC50 did it give?
Its pEC50 is under 6.30.

How did the pEC50 turn out when CCN1CCCC[C@H]1C(=O)N1CCC(Cc2ccccc2)CC1 [Compound 26, 1-(4-Benzylpiperidin-1-yl)-1-((S)-1-ethylpiperidin-2-yl)methanone] was run?
Its pEC50 is over 7.00.

How did the pEC50 turn out when CCN1CCCC[C@H]1C(=O)N1CCN(Cc2ccc(F)c(F)c2)CC1 [Compound 77, [4-(3,4-Difluorobenzyl)-piperazin-1-yl]-((2S) -1-ethylpiperidin-2-yl)-methanone] was run?
The pEC50 was 6.30 to 7.00.

How did the pEC50 turn out when CCN1CCCC[C@H]1C(=O)N1CCN(Cc2cccnc2)CC1 [Compound 36, ((2S)-1-Ethylpiperidin-2-yl)-(4-pyridin-3-ylmethylpiperazin-1-yl)-methanone trihydrochloride] was run?
Its pEC50 is under 6.30.

O=C(C1CCN(C/C=C/c2ccccc2)CC1)N1CCN(c2ccc(F)cc2)CC1 [Compound 266] was tested. Which pEC50 did it give?
The pEC50 was 6.30 to 7.00.

O=C([C@@H]1CCCCN1Cc1ccccc1)N1CCN(C(c2ccc(F)cc2)c2ccc(F)cc2)CC1 [Compound 61, ((2S)-1-Benzylpiperidin-2-yl)-{4-[bis-(4-fluorophenyl)methyl]-piperazin-1-yl}-methanone] was tested. Which pEC50 did it give?
The pEC50 was 6.30 to 7.00.

— patent EP1257544B1, “PIPERAZINE AND PIPERIDINE DERIVATIVES FOR TREATMENT OR PREVENTION OF NEURONAL DAMAGE” (VERTEX PHARMACEUTICALS INCORPORATED, priority 2000, dated 2001)
